PubChem BioAssay AID2060893 (Molecular Pharmacology Branch, DTP, NCI, 2025)

Tested on: K86415-001-R-J1-PDC complex spheroids, viability
Test: Anticancer human tumor K86415-001-R-J1-PDC patient-derived lung adenocarcinoma cell line growth inhibition [RAS]
Conditions: for IC50: curve of first compound; for viability, T/C: stronger effect = lower value
In short: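 Agents were tested in combination matrices in half-log decrements from a top concentration at or near clinical Cmax (10 microM if undetermined). Targets were multi-cell spheroids of tumour lines plus HUVEC and MSC stromal cells.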

[1] = second compound 0.000949 µM, first compound 0.0316 µM
[2] = second compound 0.000949 µM, first compound 0.1 µM
[3] = second compound 0.000949 µM, first compound 0.316 µM
[4] = second compound 0.000949 µM, first compound 1 µM
[5] = second compound 0.000949 µM, first compound 3.16 µM
[6] = second compound 0.000949 µM, first compound 10 µM
[7] = second compound 0.003 µM, first compound 0.0316 µM
[8] = second compound 0.003 µM, first compound 0.1 µM
[9] = second compound 0.003 µM, first compound 0.316 µM
[10] = second compound 0.003 µM, first compound 1 µM
[11] = second compound 0.003 µM, first compound 3.16 µM
[12] = second compound 0.003 µM, first compound 10 µM
[13] = second compound 0.00949 µM, first compound 0.0316 µM
[14] = second compound 0.00949 µM, first compound 0.1 µM
[15] = second compound 0.00949 µM, first compound 0.316 µM
[16] = second compound 0.00949 µM, first compound 1 µM
[17] = second compound 0.00949 µM, first compound 3.16 µM
[18] = second compound 0.00949 µM, first compound 10 µM
[19] = second compound 0.03 µM, first compound 0.0316 µM
[20] = second compound 0.03 µM, first compound 0.1 µM
[21] = second compound 0.03 µM, first compound 0.316 µM
[22] = second compound 0.03 µM, first compound 1 µM
[23] = second compound 0.03 µM, first compound 3.16 µM
[24] = second compound 0.03 µM, first compound 10 µM
[25] = second compound 0.0949 µM, first compound 0.0316 µM
[26] = second compound 0.0949 µM, first compound 0.1 µM
[27] = second compound 0.0949 µM, first compound 0.316 µM
[28] = second compound 0.0949 µM, first compound 1 µM
[29] = second compound 0.0949 µM, first compound 3.16 µM
[30] = second compound 0.0949 µM, first compound 10 µM
[31] = second compound 0.3 µM, first compound 0.0316 µM
[32] = second compound 0.3 µM, first compound 0.1 µM
[33] = second compound 0.3 µM, first compound 0.316 µM
[34] = second compound 0.3 µM, first compound 1 µM
[35] = second compound 0.3 µM, first compound 3.16 µM
[36] = second compound 0.3 µM, first compound 10 µM
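Further: spheroids exposed to agents for seven days before readout.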

CC(C)NCC(C(=O)N1CCN(c2ncnc3c2C(C)CC3O)CC1)c1ccc(Cl)cc1 (stereo not drawn) + CCn1c(-c2cc(N3CCN(C)CC3)cnc2C(C)OC)c2c3cc(ccc31)-c1csc(n1)CC(NC(=O)C1CC1C)C(=O)N1CCCC(N1)C(=O)OCC(C)(C)C2 was tested, and the IC50 (second compound 0.000949 µM) was 43 nM, the IC50 (second compound 0.003 µM) was less than 31.6 nM and the IC50 (second compound 0.00949 µM) was less than 31.6 nM. For the same compound, the IC50 (second compound 0.03 µM) was less than 31.6 nM, the IC50 (second compound 0.0949 µM) was less than 31.6 nM and the IC50 (second compound 0.3 µM) was less than 31.6 nM. The viability, T/C [1] was 52.1%, the viability, T/C [2] was 48.3% and the viability, T/C [3] was 28.8%. For the same compound, the viability, T/C [4] was 31.1%, the viability, T/C [5] was 29% and the viability, T/C [6] was 13.3%. It also gave a viability, T/C [7] of 25%, a viability, T/C [8] of 15.2% and a viability, T/C [9] of 13.7%. For the same compound, the viability, T/C [10] was 16%, the viability, T/C [11] was 10.4% and the viability, T/C [12] was 3.32%. The viability, T/C [13] was 12.1%, the viability, T/C [14] was 15.4% and the viability, T/C [15] was 6.91%. The viability, T/C [16] was 4.13%, the viability, T/C [17] was 1.63% and the viability, T/C [18] was 1%. It also gave a viability, T/C [19] of 5.32%, a viability, T/C [20] of 4.39% and a viability, T/C [21] of 3.56%. It also gave a viability, T/C [22] of 1.38%, a viability, T/C [23] of 0.66% and a viability, T/C [24] of 0.65%. For the same compound, the viability, T/C [25] was 2.69%, the viability, T/C [26] was 3.08% and the viability, T/C [27] was 1.6%. For the same compound, the viability, T/C [28] was 0.75%, the viability, T/C [29] was 0.62% and the viability, T/C [30] was 0.56%. It also gave a viability, T/C [31] of 2.88%, a viability, T/C [32] of 1.88% and a viability, T/C [33] of 1.86%. It also gave a viability, T/C [34] of 0.88%, a viability, T/C [35] of 0.75% and a viability, T/C [36] of 0.84%.
CC(C)n1nc(-c2ccc3oc(N)nc3c2)c2c(N)ncnc21 + CCn1c(-c2cc(N3CCN(C)CC3)cnc2C(C)OC)c2c3cc(ccc31)-c1csc(n1)CC(NC(=O)C1CC1C)C(=O)N1CCCC(N1)C(=O)OCC(C)(C)C2 gave an IC50 (second compound 0.000949 µM) of less than 0.316 nM, an IC50 (second compound 0.003 µM) of less than 0.316 nM and an IC50 (second compound 0.00949 µM) of less than 0.316 nM. For the same compound, the IC50 (second compound 0.03 µM) was less than 0.316 nM, the IC50 (second compound 0.0949 µM) was less than 0.316 nM and the IC50 (second compound 0.3 µM) was less than 0.316 nM. For the same compound, the viability, T/C (second compound 0.000949 µM, first compound 0.000316 µM) was 46.4%, the viability, T/C (second compound 0.000949 µM, first compound 0.001 µM) was 46.7% and the viability, T/C (second compound 0.000949 µM, first compound 0.00316 µM) was 39.5%. It also gave a viability, T/C (second compound 0.000949 µM, first compound 0.01 µM) of 43.9%, a viability, T/C [1] of 35.4% and a viability, T/C [2] of 20.4%. It also gave a viability, T/C (second compound 0.003 µM, first compound 0.000316 µM) of 23.1%, a viability, T/C (second compound 0.003 µM, first compound 0.001 µM) of 17.4% and a viability, T/C (second compound 0.003 µM, first compound 0.00316 µM) of 18.4%. The viability, T/C (second compound 0.003 µM, first compound 0.01 µM) was 16.3%, the viability, T/C [7] was 23.8% and the viability, T/C [8] was 7.47%. For the same compound, the viability, T/C (second compound 0.00949 µM, first compound 0.000316 µM) was 11.5%, the viability, T/C (second compound 0.00949 µM, first compound 0.001 µM) was 9.33% and the viability, T/C (second compound 0.00949 µM, first compound 0.00316 µM) was 9.17%. The viability, T/C (second compound 0.00949 µM, first compound 0.01 µM) was 8.21%, the viability, T/C [13] was 3.17% and the viability, T/C [14] was 2.45%. For the same compound, the viability, T/C (second compound 0.03 µM, first compound 0.000316 µM) was 5.52%, the viability, T/C (second compound 0.03 µM, first compound 0.001 µM) was 4.5% and the viability, T/C (second compound 0.03 µM, first compound 0.00316 µM) was 3.7%. The viability, T/C (second compound 0.03 µM, first compound 0.01 µM) was 2.13%, the viability, T/C [19] was 0.97% and the viability, T/C [20] was 1.14%. It also gave a viability, T/C (second compound 0.0949 µM, first compound 0.000316 µM) of 3.75%, a viability, T/C (second compound 0.0949 µM, first compound 0.001 µM) of 3.4% and a viability, T/C (second compound 0.0949 µM, first compound 0.00316 µM) of 2.07%. The viability, T/C (second compound 0.0949 µM, first compound 0.01 µM) was 1.07%, the viability, T/C [25] was 0.49% and the viability, T/C [26] was 0.77%. For the same compound, the viability, T/C (second compound 0.3 µM, first compound 0.000316 µM) was 2.48%, the viability, T/C (second compound 0.3 µM, first compound 0.001 µM) was 2.57% and the viability, T/C (second compound 0.3 µM, first compound 0.00316 µM) was 2.13%. It also gave a viability, T/C (second compound 0.3 µM, first compound 0.01 µM) of 0.8%, a viability, T/C [31] of 0.57% and a viability, T/C [32] of 0.8%.
With CC(Nc1ccc2c(c1)OCCn1cc(N3C(=O)OCC3C(F)F)nc1-2)C(N)=O (stereo not drawn) + CCn1c(-c2cc(N3CCN(C)CC3)cnc2C(C)OC)c2c3cc(ccc31)-c1csc(n1)CC(NC(=O)C1CC1C)C(=O)N1CCCC(N1)C(=O)OCC(C)(C)C2 the IC50 (second compound 0.000949 µM) was less than 31.6 nM, the IC50 (second compound 0.003 µM) was less than 31.6 nM and the IC50 (second compound 0.00949 µM) was less than 31.6 nM. It also gave an IC50 (second compound 0.03 µM) of less than 31.6 nM, an IC50 (second compound 0.0949 µM) of less than 31.6 nM and an IC50 (second compound 0.3 µM) of less than 31.6 nM. For the same compound, the viability, T/C [1] was 44.1%, the viability, T/C [2] was 28.2% and the viability, T/C [3] was 22.2%. For the same compound, the viability, T/C [4] was 20.6%, the viability, T/C [5] was 16.6% and the viability, T/C [6] was 6.57%. The viability, T/C [7] was 18.8%, the viability, T/C [8] was 12.9% and the viability, T/C [9] was 12.1%. It also gave a viability, T/C [10] of 8.44%, a viability, T/C [11] of 5.02% and a viability, T/C [12] of 1.84%. For the same compound, the viability, T/C [13] was 11.8%, the viability, T/C [14] was 4.96% and the viability, T/C [15] was 3.08%. It also gave a viability, T/C [16] of 2.36%, a viability, T/C [17] of 1.25% and a viability, T/C [18] of 0.72%. The viability, T/C [19] was 4.01%, the viability, T/C [20] was 1.42% and the viability, T/C [21] was 1.24%. For the same compound, the viability, T/C [22] was 1.2%, the viability, T/C [23] was 0.54% and the viability, T/C [24] was 0.63%. The viability, T/C [25] was 1.94%, the viability, T/C [26] was 1.08% and the viability, T/C [27] was 0.93%. For the same compound, the viability, T/C [28] was 0.62%, the viability, T/C [29] was 0.8% and the viability, T/C [30] was 0.59%. The viability, T/C [31] was 2.35%, the viability, T/C [32] was 0.93% and the viability, T/C [33] was 0.73%. For the same compound, the viability, T/C [34] was 0.47%, the viability, T/C [35] was 0.85% and the viability, T/C [36] was 0.49%.
Compound C[C@@H](NC(=O)c1ncnc(N)c1Cl)c1ncc(C(=O)Nc2cc(C(F)(F)F)c(Cl)cn2)s1 + CCn1c(-c2cc(N3CCN(C)CC3)cnc2C(C)OC)c2c3cc(ccc31)-c1csc(n1)CC(NC(=O)C1CC1C)C(=O)N1CCCC(N1)C(=O)OCC(C)(C)C2 has an IC50 (second compound 0.000949 µM) of 4280 nM, an IC50 (second compound 0.003 µM) of less than 31.6 nM and an IC50 (second compound 0.00949 µM) of less than 31.6 nM. For the same compound, the IC50 (second compound 0.03 µM) was less than 31.6 nM, the IC50 (second compound 0.0949 µM) was less than 31.6 nM and the IC50 (second compound 0.3 µM) was less than 31.6 nM. The viability, T/C [1] was 58.2%, the viability, T/C [2] was 62.2% and the viability, T/C [3] was 53.7%. The viability, T/C [4] was 62.2%, the viability, T/C [5] was 57.1% and the viability, T/C [6] was 29.1%. The viability, T/C [7] was 34.8%, the viability, T/C [8] was 27.6% and the viability, T/C [9] was 32.1%. The viability, T/C [10] was 38.1%, the viability, T/C [11] was 33.4% and the viability, T/C [12] was 21.7%. The viability, T/C [13] was 12.9%, the viability, T/C [14] was 11.8% and the viability, T/C [15] was 11.9%. It also gave a viability, T/C [16] of 16.6%, a viability, T/C [17] of 15.4% and a viability, T/C [18] of 11.6%. For the same compound, the viability, T/C [19] was 6.75%, the viability, T/C [20] was 8.74% and the viability, T/C [21] was 8.31%. It also gave a viability, T/C [22] of 8.07%, a viability, T/C [23] of 8.51% and a viability, T/C [24] of 7.57%. The viability, T/C [25] was 5.52%, the viability, T/C [26] was 4.87% and the viability, T/C [27] was 4.23%. For the same compound, the viability, T/C [28] was 4.04%, the viability, T/C [29] was 4.24% and the viability, T/C [30] was 4.39%. For the same compound, the viability, T/C [31] was 3.5%, the viability, T/C [32] was 3.03% and the viability, T/C [33] was 4.17%. The viability, T/C [34] was 3.4%, the viability, T/C [35] was 4.53% and the viability, T/C [36] was 4.26%.
